Source: ChEMBL document CHEMBL4130619, “Structure-Based Virtual Screening for the Discovery of Novel Inhibitors of New Delhi Metallo-β-lactamase-1” (ACS Med Chem Lett, 2018)

Legend:
[1] = molecular target: Beta-lactamase NDM-1 (Escherichia coli) (UniProt E5KIY2); assay: Inhibition of NDM1 in Escherichia coli clinical isolates assessed as potentiation of meropenem-induced antibacterial activity by measuring reduction in meropenem MIC incubated at 37 degC for 18 hrs by spectrophotometry based checkerboard microdilution assay
[2] = test system: Bacteria; assay: Inhibition of bacterial NDM1 expressed in Escherichia coli BL21 (DE3) expressing pET-24a-blaNDM-1 assessed as potentiation of ampicillin-induced antibacterial activity by measuring fractional inhibitory concentration index at 256 ug/ml incubated at 37 degC for 18 hrs by spectrophotometry based checkerboard microdilution assay
[3] = test system: Bacteria; assay: Inhibition of bacterial NDM1 expressed in Escherichia coli BL21 (DE3) expressing pET-24a-blaNDM-1 assessed as potentiation of ampicillin-induced antibacterial activity by measuring combination MIC at 256 ug/ml incubated at 37 degC for 18 hrs by spectrophotometry based checkerboard microdilution assay
[4] = molecular target: Beta-lactamase NDM-1 (Escherichia coli) (UniProt E5KIY2); assay: Inhibition of NDM1 in Escherichia coli clinical isolates assessed as potentiation of meropenem -induced antibacterial activity by measuring combination MIC at 2 ug/ml incubated at 37 degC for 18 hrs by spectrophotometry based checkerboard microdilution assay
[5] = test system: Bacteria; assay: Inhibition of bacterial NDM1 expressed in Escherichia coli BL21 (DE3) expressing pET-24a-blaNDM-1 assessed as potentiation of cefotaxime-induced antibacterial activity by measuring combination MIC at 4 ug/ml incubated at 37 degC for 18 hrs by spectrophotometry based checkerboard microdilution assay
[6] = test system: Bacteria; assay: Inhibition of bacterial NDM1 expressed in Escherichia coli BL21 (DE3) expressing pET-24a-blaNDM-1 assessed as potentiation of meropenem-induced antibacterial activity by measuring fractional inhibitory concentration index at 0.25 ug/ml incubated at 37 degC for 18 hrs by spectrophotometry based checkerboard microdilution assay
[7] = molecular target: Beta-lactamase NDM-1 (Escherichia coli) (UniProt E5KIY2); assay: Inhibition of NDM1 in Escherichia coli clinical isolates assessed as potentiation of meropenem -induced antibacterial activity by measuring fractional inhibitory concentration index at 2 ug/ml incubated at 37 degC for 18 hrs by spectrophotometry based checkerboard microdilution assay
[8] = test system: Bacteria; assay: Inhibition of bacterial NDM1 expressed in Escherichia coli BL21 (DE3) expressing pET-24a-blaNDM-1 assessed as potentiation of cefazolin-induced antibacterial activity by measuring fractional inhibitory concentration index at >256 ug/ml incubated at 37 degC for 18 hrs by spectrophotometry based checkerboard microdilution assay
[9] = molecular target: Beta-lactamase NDM-1 (Escherichia coli) (UniProt E5KIY2); assay: Inhibition of NDM1 in Escherichia coli clinical isolates assessed as potentiation of cefazolin-induced antibacterial activity by measuring combination MIC at >256 ug/ml incubated at 37 degC for 18 hrs by spectrophotometry based checkerboard microdilution assay
[10] = test system: Bacteria; assay: Inhibition of bacterial NDM1 expressed in Escherichia coli BL21 (DE3) expressing pET-24a-blaNDM-1 assessed as potentiation of meropenem-induced antibacterial activity by measuring reduction in meropenem MIC incubated at 37 degC for 18 hrs by spectrophotometry based checkerboard microdilution assay
[11] = test system: Bacteria; assay: Inhibition of bacterial NDM1 expressed in Escherichia coli BL21 (DE3) expressing pET-24a-blaNDM-1 assessed as potentiation of meropenem-induced antibacterial activity by measuring fractional inhibitory concentration index at 16 ug/ml incubated at 37 degC for 18 hrs by spectrophotometry based checkerboard microdilution assay
[12] = molecular target: Beta-lactamase NDM-1 (Escherichia coli) (UniProt E5KIY2); assay: Inhibition of NDM1 in Escherichia coli clinical isolates assessed as potentiation of cefazolin-induced antibacterial activity by measuring fractional inhibitory concentration index at >256 ug/ml incubated at 37 degC for 18 hrs by spectrophotometry based checkerboard microdilution assay
[13] = molecular target: Beta-lactamase NDM-1 (Escherichia coli) (UniProt E5KIY2); assay: Inhibition of NDM1 in Escherichia coli clinical isolates assessed as potentiation of meropenem -induced antibacterial activity by measuring fractional inhibitory concentration index at 32 ug/ml incubated at 37 degC for 18 hrs by spectrophotometry based checkerboard microdilution assay
[14] = test system: Bacteria; assay: Competitive inhibition of bacterial NDM1 expressed in Escherichia coli JM109 (DE3) at 200 uM pre-incubated for 10 mins before nitrocefin substrate addition by spectrophotometry
[15] = test system: Bacteria; assay: Inhibition of bacterial NDM1 expressed in Escherichia coli BL21 (DE3) expressing pET-24a-blaNDM-1 assessed as potentiation of ampicillin-induced antibacterial activity by measuring combination MIC at >256 ug/ml incubated at 37 degC for 18 hrs by spectrophotometry based checkerboard microdilution assay
[16] = Competitive inhibition of bacterial NDM1 expressed in Escherichia coli JM109 (DE3) pre-incubated for 10 mins before nitrocefin substrate addition by spectrophotometry; parameters: species or system Bacteria
[17] = molecular target: Beta-lactamase NDM-1 (Escherichia coli) (UniProt E5KIY2); assay: Inhibition of NDM1 in Escherichia coli clinical isolates assessed as potentiation of ampicillin-induced antibacterial activity by measuring fractional inhibitory concentration index at 128 ug/ml incubated at 37 degC for 18 hrs by spectrophotometry based checkerboard microdilution assay
[18] = test system: Bacteria; assay: Inhibition of bacterial NDM1 expressed in Escherichia coli BL21 (DE3) expressing pET-24a-blaNDM-1 assessed as potentiation of meropenem-induced antibacterial activity by measuring combination MIC at 16 ug/ml incubated at 37 degC for 18 hrs by spectrophotometry based checkerboard microdilution assay
[19] = test system: Bacteria; assay: Inhibition of bacterial NDM1 expressed in Escherichia coli BL21 (DE3) expressing pET-24a-blaNDM-1 assessed as potentiation of cefazolin-induced antibacterial activity by measuring combination MIC at 256 ug/ml incubated at 37 degC for 18 hrs by spectrophotometry based checkerboard microdilution assay
[20] = molecular target: Beta-lactamase NDM-1 (Escherichia coli) (UniProt E5KIY2); assay: Inhibition of NDM1 in Escherichia coli clinical isolates assessed as potentiation of meropenem -induced antibacterial activity by measuring combination MIC at 32 ug/ml incubated at 37 degC for 18 hrs by spectrophotometry based checkerboard microdilution assay
[21] = molecular target: Beta-lactamase NDM-1 (Escherichia coli) (UniProt E5KIY2); assay: Inhibition of NDM1 in Escherichia coli clinical isolates assessed as potentiation of cefotaxime-induced antibacterial activity by measuring fractional inhibitory concentration index at >256 ug/ml incubated at 37 degC for 18 hrs by spectrophotometry based checkerboard microdilution assay
[22] = test system: Bacteria; assay: Inhibition of bacterial NDM1 expressed in Escherichia coli BL21 (DE3) expressing pET-24a-blaNDM-1 assessed as potentiation of cefotaxime-induced antibacterial activity by measuring combination MIC at 0.25 ug/ml incubated at 37 degC for 18 hrs by spectrophotometry based checkerboard microdilution assay
[23] = test system: Bacteria; assay: Inhibition of bacterial NDM1 expressed in Escherichia coli BL21 (DE3) expressing pET-24a-blaNDM-1 assessed as potentiation of cefazolin-induced antibacterial activity by measuring combination MIC at >256 ug/ml incubated at 37 degC for 18 hrs by spectrophotometry based checkerboard microdilution assay
[24] = test system: Bacteria; assay: Inhibition of bacterial NDM1 expressed in Escherichia coli BL21 (DE3) expressing pET-24a-blaNDM-1 assessed as potentiation of ampicillin-induced antibacterial activity by measuring fractional inhibitory concentration index at >256 ug/ml incubated at 37 degC for 18 hrs by spectrophotometry based checkerboard microdilution assay
[25] = molecular target: Beta-lactamase NDM-1 (Escherichia coli) (UniProt E5KIY2); assay: Inhibition of NDM1 in Escherichia coli clinical isolates assessed as potentiation of ampicillin-induced antibacterial activity by measuring combination MIC at 128 ug/ml incubated at 37 degC for 18 hrs by spectrophotometry based checkerboard microdilution assay

With `C=CCn1c(S)nnc1-c1ccccc1O` the fold change (FC) [1] was 8, the fractional inhibitory concentration index (FICI) [2] was less than 0.563 and the MIC [3] was 0.0625 µg/mL. The MIC [4] was 64 µg/mL, the MIC [5] was 2 µg/mL and the fractional inhibitory concentration index (FICI) [6] was less than 0.501. For the same compound, the fractional inhibitory concentration index (FICI) [7] was less than 0.504, the fractional inhibitory concentration index (FICI) [8] was greater than 1 and the MIC [9] was 2050 µg/mL. It also gave a fold change (FC) [10] of 16, a fractional inhibitory concentration index (FICI) [11] of less than 0.281 and a fractional inhibitory concentration index (FICI) [12] greater than 1. The fractional inhibitory concentration index (FICI) [13] was less than 0.313, the inhibition [14] was greater than 50% and the MIC [15] was 1020 µg/mL. For the same compound, the Ki [16] was 720 nM, the fractional inhibitory concentration index (FICI) [17] was less than 0.375 and the MIC [18] was 0.25 µg/mL. The MIC [19] was 1 µg/mL, the MIC [20] was 32 µg/mL and the fractional inhibitory concentration index (FICI) [21] was greater than 1. The MIC [22] was 4 µg/mL, the MIC [23] was 32 µg/mL and the fractional inhibitory concentration index (FICI) [24] was greater than 1. For the same compound, the MIC [25] was 16 µg/mL.
